Measurements published in patent US20090264433A1, “Compounds, Compositions and Methods Comprising Triazine Derivatives” (Institute for OneWorld Health, priority 2008, published 2009).
Where “and” joins values, the source holds several entries; their conditions need not be identical. Equal entries are not always repeated.

System: mice (CD1 strain), CTX-injected small intestinal loops
Conditions: mouse, in vivo

Q: For `Oc1c(Br)cc(-c2cnc(OCc3ccc(Cl)cc3)nn2)cc1Br` [Compound 20, 2,6-dibromo-4-(3-(4-chlorobenzyloxy)-1,2,4-triazin-6-yl)phenol], which “closed loop % inhibition” value is on record?
A: The value was 87.6%.

Q: With `Oc1c(Br)cc(-c2cnc(COc3cccc(Cl)c3Cl)nn2)cc1Br` [Compound 30, 2,6-dibromo-4-(3-((2,3-dichlorophenoxy)methyl)-1,2,4-triazin-6-yl)phenol] as the compound, how does the “closed loop % inhibition” value read?
A: Its value is 94.4%.

Q: For `Oc1c(Cl)cc(-c2cnc(C(O)(c3ccccc3)c3ccccc3)nn2)cc1Cl` [Compound 36, 2,6-dichloro-4-(3-(hydroxydiphenylmethyl)-1,2,4-triazin-6-yl)phenol], which “closed loop % inhibition” value is on record?
A: The value was 74.9% and 62.1%.

Q: For `Oc1c(Br)cc(-c2cnc(OCCc3ccccc3)nn2)cc1Br` [Compound 96, 2,6-dibromo-4-(3-phenethoxy-1,2,4-triazin-6-yl)phenol], which “closed loop % inhibition” value is on record?
A: Its value is 78.6%.

Q: How did the “closed loop % inhibition” value turn out when `Oc1c(Cl)cc(-c2cnc(OCc3ccccc3F)nn2)cc1Cl` [Compound 127, 2,6-dichloro-4-(3-(2-fluorobenzyloxy)-1,2,4-triazin-6-yl)phenol] was run?
A: Its value is 70.2% and 62.7%.
